In brackets after ≈: the same amount, converted by molar mass. Where a SMILES comes first, the peptide text is derived from it.
Experiments:
Mab ATCC19977 strain = type: cell-based, Mycobacterium abscessus
Experimental: Briefly, serial dilutions of the AMPs were prepared with potassium phosphate buffer (PPB) from the concentration range of 3.125 to 400 μg/ml and then 50 μl of each dilution were added to each 96-well plate. Colonies of the isolate were suspended and then further diluted in Mueller-Hinton broth to obtain a final concentration of 1×10^3 CFU/ml (optimized according to the available AMP stock concentration). Fifty microliters of this inoculum were added to each well of the plates. The plates were incubated for 3 days at 37°C. Plain media and bacterial suspensions without AMPs were used as negative and positive controls. The MIC values were read and recorded. All assays were performed in duplicate and two independent experiments.

[1] = test system: M. abscessus clinical isolate MAB11; assay: microbe, parasite or virus in culture; type: cell-based, M. abscessus subsp. abscessus; conditions: MAB11; for FICI: AMP + CLA, mean ± S.D., two independent experiments
Experimental: (§1) Mab suspensions at a 5×10^5 CFU/ml final concentration were added to each well and incubated for 3 days and 14 days at 37°C. MIC values were defined when the percent killing of CFUs of more than 90% were compared to the media controls without AMPs or drugs. The fraction inhibitory concentration index (FICI) was calculated using the following formula: FICI = [C(MIC^A)/MIC^A] + [C(MIC^B)/MIC^B]. […] For interpretation, FICI ≤ 0.5 was interpreted as synergism, FICI >0.5–1.0 was interpreted as additive, FICI >1.0–4.0 was interpreted as indifferent and FICI >4.0 was interpreted as antagonism.

[2] = test system: M. abscessus clinical isolate MAB05; assay: microbe, parasite or virus in culture; type: cell-based, M. abscessus subsp. abscessus; conditions: MAB05; for FICI: AMP + CLA, mean ± S.D., two independent experiments
Experimental: as §1

[3] = test system: M. abscessus clinical isolate MAB03; assay: microbe, parasite or virus in culture; type: cell-based, M. abscessus subsp. abscessus; conditions: MAB03; for FICI: AMP + CLA, mean ± S.D., two independent experiments
Experimental: as §1

[4] = test system: M. abscessus clinical isolate MAB07; assay: microbe, parasite or virus in culture; type: cell-based, M. abscessus subsp. abscessus; conditions: MAB07; for FICI: AMP + CLA, mean ± S.D., two independent experiments
Experimental: as §1

[5] = test system: M. abscessus clinical isolate MAB01; assay: microbe, parasite or virus in culture; type: cell-based, M. abscessus subsp. abscessus; conditions: MAB01; AMP + CLA; mean ± S.D., two independent experiments
Experimental: as §1

[6] = test system: M. abscessus clinical isolate MAB10; assay: microbe, parasite or virus in culture; type: cell-based, M. abscessus subsp. abscessus; conditions: MAB10; for FICI: AMP + CLA, mean ± S.D., two independent experiments
Experimental: as §1

[7] = test system: M. abscessus clinical isolate MAB02; assay: microbe, parasite or virus in culture; type: cell-based, M. abscessus subsp. abscessus; conditions: MAB02; for FICI: AMP + CLA, mean ± S.D., two independent experiments
Experimental: as §1

[8] = test system: M. abscessus clinical isolate MAB09; assay: microbe, parasite or virus in culture; type: cell-based, M. abscessus subsp. abscessus; conditions: MAB09; for FICI: AMP + CLA, mean ± S.D., two independent experiments
Experimental: as §1

[9] = test system: human peripheral blood mononuclear cells (PBMCs); assay: PBMC toxicity, trypan blue exclusion assay; type: cell-based; conditions: 1 h at 37°C, mean±SD of duplicates, two independent experiments
Experimental: For the toxicity of the potential AMPs to human peripheral blood mononuclear cells (PBMCs), the trypan blue exclusion assay was used. Fresh human PBMCs were prepared from blood samples of healthy volunteers using the Ficoll density gradient technique. The cells were centrifuged at 1,800 rpm for 20 min at 20°C and washed three times with PBS and adjusted with RPMI-1640 medium into 6.25×10^5 cells/ml. Fifty microliters of PBMC suspension and 50 μl of AMP solutions (6.25–400 μg/ml) were added to the 96-well microtiter plates and incubated for 1 h at 37°C. Then, 20 μl of the samples were mixed with 20 μl of 0.4% (w/v) trypan blue solution (0.81% NaCl and 0.06% (w/v) dibasic potassium phosphate) in microtubes and incubated for 3 min at room temperature. The PBMC suspensions treated with PBS were used as negative controls. PBMCs were counted using a dual-chamber hemocytometer under a light microscope. Viable and non-viable cells were counted under a microscope and the percentage of viable cells was calculated using the following formula: % of viable cells = [1.00 –([…] / Number of total cells)] × 100. All assays were performed in duplicate with two independent experiments.

[10] = test system: M. abscessus clinical isolate MAB14; assay: microbe, parasite or virus in culture; type: cell-based, M. abscessus subsp. massiliense; conditions: MAB14; for FICI: AMP + CLA, mean ± S.D., two independent experiments
Experimental: as §1

[11] = test system: M. abscessus clinical isolate MAB12; assay: microbe, parasite or virus in culture; type: cell-based, M. abscessus subsp. massiliense; conditions: MAB12; for FICI: AMP + CLA, mean ± S.D., two independent experiments
Experimental: as §1

In the case of `CC[C@H](C)[C@H](NC(=O)[C@H](CCCCN)NC(=O)[C@H](CCCNC(=N)N)NC(=O)CNC(=O)[C@H](CC(C)C)NC(=O)[C@H](CO)NC(=O)[C@H](CCCNC(=N)N)NC(=O)[C@H](CC(C)C)NC(=O)CNC(=O)CN)C(=O)N[C@@H](CC(C)C)C(=O)N[C@@H](CCCNC(=N)N)C(=O)N[C@@H](C)C(=O)N[C@@H](Cc1c[nH]c2ccccc12)C(=O)N[C@@H](CCCCN)C(=O)O` [S63] (H-GGLRSLGRKILRAWK-OH), the MIC values (Mab ATCC19977 strain) is reported as 200 µg/mL (≈ 117 µM), the FICI [1] is reported as 0.76±0.35 and the “MIC, AMP alone” value [1] is reported as >400 µg/mL. For the same compound, the FICI [2] was 1.01±0.00, the “MIC, AMP alone” value [2] was >400 µg/mL and the FICI [3] was 0.52±0.00. The “MIC, AMP alone” value [3] was 12.5 µg/mL, the FICI [4] was 0.04±0.01 and the “MIC, AMP alone” value [4] was >400 µg/mL. For the same compound, the FICI [5] was 0.63±0.17, the FICI [6] was 0.07±0.00 and the “MIC, AMP alone” value [6] was >400 µg/mL. The FICI [7] was 1.04±0.04, the “MIC, AMP alone” value [7] was >400 µg/mL and the FICI [8] was 0.52±0.00. The “MIC, AMP alone” value [8] was >400 µg/mL, the “Viable cells of PBMCs (% viable cells)” value ([9]; 6.25 µg/mL) was 103.67±6.60% and the “Viable cells of PBMCs (% viable cells)” value ([9]; 12.5 µg/mL) was 101.78±5.46%. The “Viable cells of PBMCs (% viable cells)” value ([9]; 25 µg/mL) was 88.38±7.60%, the “Viable cells of PBMCs (% viable cells)” value ([9]; 50 µg/mL) was 93.65±6.02% and the “Viable cells of PBMCs (% viable cells)” value ([9]; 100 µg/mL) was 66.28±2.71%. For the same compound, the “Viable cells of PBMCs (% viable cells)” value ([9]; 200 µg/mL) was 71.94±8.32%, the “Viable cells of PBMCs (% viable cells)” value ([9]; 400 µg/mL) was 48.78±0.59% and the FICI [10] was 0.19±0.00. For the same compound, the “MIC, AMP alone” value [10] was >400 µg/mL, the FICI [11] was 1.01±0.00 and the “MIC, AMP alone” value [11] was >400 µg/mL.

For `CC[C@H](C)[C@H](NC(=O)[C@H](CCCCN)NC(=O)[C@H](CCCNC(=N)N)NC(=O)CNC(=O)[C@H](CC(C)C)NC(=O)[C@H](CO)NC(=O)[C@H](CCCNC(=N)N)NC(=O)[C@H](CC(C)C)NC(=O)CNC(=O)CN)C(=O)N[C@@H](CC(C)C)C(=O)N[C@@H](CCCNC(=N)N)C(=O)N[C@@H](C)C(=O)N[C@@H](Cc1c[nH]c2ccccc12)C(=O)N[C@@H](CCCCN)C(=O)N[C@@H](CCCCN)C(=O)N[C@@H](Cc1ccc(O)cc1)C(=O)O` [S61] (H-GGLRSLGRKILRAWKKY-OH), the MIC values (Mab ATCC19977 strain) was 200 µg/mL (≈ 99.9 µM), the FICI [1] was 0.67±0.08 and the “MIC, AMP alone” value [1] was >400 µg/mL. The FICI [2] was 1.01±0.00, the “MIC, AMP alone” value [2] was >400 µg/mL and the FICI [3] was 0.28±0.00. The “MIC, AMP alone” value [3] was 6.25 µg/mL, the FICI [4] was 0.03±0.00 and the “MIC, AMP alone” value [4] was >400 µg/mL. The FICI [5] was 0.41±0.17, the FICI [6] was 0.05±0.00 and the “MIC, AMP alone” value [6] was >400 µg/mL. For the same compound, the FICI [7] was 1.02±0.00, the “MIC, AMP alone” value [7] was >400 µg/mL and the FICI [8] was 1.01±0.00. For the same compound, the “MIC, AMP alone” value [8] was >400 µg/mL, the “Viable cells of PBMCs (% viable cells)” value ([9]; 6.25 µg/mL) was 97.98±1.38% and the “Viable cells of PBMCs (% viable cells)” value ([9]; 12.5 µg/mL) was 94.40±0.56%. For the same compound, the “Viable cells of PBMCs (% viable cells)” value ([9]; 25 µg/mL) was 95.35±3.74%, the “Viable cells of PBMCs (% viable cells)” value ([9]; 50 µg/mL) was 87.35±7.57% and the “Viable cells of PBMCs (% viable cells)” value ([9]; 100 µg/mL) was 79.70±6.73%. For the same compound, the “Viable cells of PBMCs (% viable cells)” value ([9]; 200 µg/mL) was 38.76±0.82%, the “Viable cells of PBMCs (% viable cells)” value ([9]; 400 µg/mL) was 41.40±5.84% and the FICI [10] was 0.10±0.04. The “MIC, AMP alone” value [10] was >400 µg/mL, the FICI [11] was 1.01±0.00 and the “MIC, AMP alone” value [11] was >400 µg/mL.
